Source: ChEMBL document CHEMBL5726331, “Pyridinone and pyrimidinone derivatives as factor Xia” (2017)

Molecular target: Coagulation factor XI (Homo sapiens, UniProt P03951)
Assay: Enzyme Activity Assay: Human Factor XIa (Haematologic Technologies Inc.) activity was measured at an enzyme concentration of 0.1 U/mL in 150 mM NaCl, 5 mM KCl, 1 mg/mL PEG6000, 50 mM HEPES-NaOH (pH7.4) with 300 μM S-2366 (pyroGlu-Pro-Arg-pNA, Chromogenix).

Coagulation factor XI, sequence (P03951 19-387 limits assumed): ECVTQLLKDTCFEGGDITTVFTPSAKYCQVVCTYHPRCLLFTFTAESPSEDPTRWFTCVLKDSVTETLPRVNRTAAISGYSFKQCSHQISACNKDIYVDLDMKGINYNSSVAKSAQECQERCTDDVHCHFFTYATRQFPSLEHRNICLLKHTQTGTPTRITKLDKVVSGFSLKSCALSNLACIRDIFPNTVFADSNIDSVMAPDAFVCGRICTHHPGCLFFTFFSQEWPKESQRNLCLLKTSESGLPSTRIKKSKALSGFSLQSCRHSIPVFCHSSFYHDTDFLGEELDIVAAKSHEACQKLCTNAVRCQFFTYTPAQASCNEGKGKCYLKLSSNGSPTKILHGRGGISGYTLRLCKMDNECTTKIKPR
Coagulation factor XI, sequence (P03951 388-625 limits assumed): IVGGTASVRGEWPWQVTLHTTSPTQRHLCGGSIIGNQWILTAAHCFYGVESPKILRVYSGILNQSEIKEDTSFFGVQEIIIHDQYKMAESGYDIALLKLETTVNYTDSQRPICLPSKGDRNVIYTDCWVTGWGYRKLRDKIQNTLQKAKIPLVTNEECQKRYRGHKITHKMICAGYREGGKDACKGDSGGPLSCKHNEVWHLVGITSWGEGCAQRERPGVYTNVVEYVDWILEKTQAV

IC50 [nM]	Compound
130	COC(=O)Nc1ccc(-c2[nH]c(CNC(=O)/C=C/c3cc(Cl)ccc3-n3cnnn3)nc2Cl)cc1
40	COC(=O)Nc1ccc(-c2[nH]c([C@H](C)NC(=O)/C=C/c3cc(Cl)ccc3-n3cnnn3)nc2Cl)cc1
